Measurements as given in patent US5314999A, “Derivatives of basic polyene macrolides and their preparation” (Laboratoires Mayoly-Spindler, priority 1989, dated 1994).
Structures can show the parent of a compound that is named as a salt. Where two headings read alike, the source gives them in different places.

Assays:
Type in all cases: cell-based
[1] = tested on: red corpuscles; assay: Toxicity on red corpuscles (lysis), mice; conditions: 37° C., 1 hour 30, 90 min, read-out: LD 50 (dose which leads to lysis in 50% of the erythrocytes)
Experimental: (§1) B.1: Study of the toxicity on red corpuscles
(§2) All the solutions of the AmB derivatives according to the invention were prepared immediately before use by diluting 4 mg of substance in 100 μl of 5% glucose solution, and then, after 15 minutes protected from light, 100 μl of sterile distilled water are added, and the mixture is made up to stock solutions of 4 mg/ml with a 5% glucose solution. For comparative study of the effects of AmB, 4 mg of FUNGIZONE are diluted with 1 ml of 5% glucose.
(§3) The cells are prepared by placing 1 ml of a peripheral blood sample into a tube together with Ficollhypaque to remove the lymphocytes, and then centrifuging the mixture at 2000 rpm for 20 minutes. The remaining red corpuscles are recovered, washed once with 0.9% NaCl and then twice with 150 Mm KCl, 0.5 Mm tris-HCl, pH 7.4.
(§4) A 1.25% suspension is then prepared with 150 mM KCl solution, 0.5 mM tris-HCl, pH 7.4, and 150 μl thereof are distributed in wells along with 50 μl of each of the dilutions of the derivatives, plus a control well (5% glucose solution).
(§5) The cells are then incubated at 37° C. in a steam cabinet for 1 hour 30.
(§6) To evaluate the cell lysis, haemoglobin is essayed by removing 100 μl of the supernatant in each well and diluting the sample with 1 ml of distilled water.
(§7) The haemoglobin concentration is calculated by measuring the optical density at 540 nm and taking into account the absorption of the derivatives of amphotericine B.
(§8) LD 50 is the dose which leads to lysis in 50% of the erythrocytes (a control of 100% lysis is obtained with distilled water, and reference lysis of 0% is obtained with the 5% glucose solution).

[2] = tested on: PBL; assay: Toxicity on nucleated cells, human PBL; conditions: 90 min
Experimental: (§9) B.2: Study of the toxicity on nucleated cells
(§10) The solutions of the amphotericine B derivatives are prepared similarly to those mentioned in paragraph B.1.
(§11) The cells are prepared by placing 20 ml of blood diluted to 1/2 with 0.9% NaCl into a tube together with 10 ml of Ficoll-hypaque, and the mixture is centrifuged at 2000 rpm for 30 minutes. The cell nuclei are recovered and washed twice with PBS buffer containing 5% of foetal calf serum.
(§12) The cells are prepared by suspending 1.14×10^6 cells/ml in RPMI 1640 containing 2.5% of foetal calf serum and by filling each well with 150 μl. 50 μl of each dilution of the derivatives are added and also one control (5% glucose solution).
(§13) The cells are then incubated in a steam cabinet at a CO2 concentration of 5% for 1 hour 30 at 37° C. or at ambient temperature.
(§14) To evaluate the toxicity of the derivatives, a cell count in the presence of trypan blue is made, and the LD 50 (concentration of the derivative leading to a mortality of 50%) is calculated with respect to the control (5% glucose solution) for each concentration of each derivative.

[3] = tested on: thymocytes; assay: Toxicity on nucleated cells, mice thymocytes; conditions: 1 hour 30, trypan blue, 90 min, read-out: LD 50 (concentration leading to a mortality of 50%)
[4] = tested on: DAUDI (human lymphoma B); assay: Toxicity on nucleated cells, DAUDI human lymphoma B; conditions: 1 hour 30, trypan blue, 90 min, read-out: LD 50 (concentration leading to a mortality of 50%)
[5] = tested on: Aspergillus fumigatus; assay: Diffusion method in agar-agar medium (Sabouraud agar-agar); conditions: Sabouraud agar-agar, disc diameter 1 cm, 0.1 ml
Experimental: (§15) A.2 : Study of the antibiotic efficiency of amphotericine B derivatives in agar-agar medium against Aspergillus
(§16) The antibiotic activity was tested by the diffusion method in agar-agar medium (Sabouraud agar-agar).
(§17) The efficiency of each molecule was determined by the size of the growth-inhibiting zone around a WHATMAN 3M paper disc impregnated with the antibiotic substance of a given concentration.
(§18) A suspension of Aspergillus spores in a broth was prepared, 0.2 ml of this suspension was used to inoculate at its surface an agar-agar medium which was solidified in such a manner that a homogeneous growth layer was obtained. After spreading, the WHATMAN 3M paper discs (diameter: 1 cm) were placed on the surface of the agar-agar, and then impregnated with 0.1 ml of the antibiotic substance at different concentrations.

[6] = tested on: Aspergillus flavus; assay: as above; conditions: Sabouraud agar-agar, disc diameter 1 cm, 0.1 ml
Experimental: as §15, §16, §17, §18

[7] = tested on: Candida albicans; assay: Growth inhibition in liquid medium (Sabouraud broth); conditions: Sabouraud broth, 28° C., 18 hours, read-out: IC 50 (growth-inhibiting concentration of 50%)
Experimental: (§19) A.1 : Study of the antibiotic efficiency of AmB derivatives in liquid medium against different yeasts
(§20) The antibiotic efficiency was tested by the growth inhibition method in liquid medium (Sabouraud broth) in the presence of different concentrations of the derivatives studied.
(§21) A yeast suspension was cultivated in a broth in such a manner that about 1×10^2 cell/ml were obtained.
(§22) The tubes containing the different concentrations of antifungal substance were inoculated with the same amount of yeast cells, and were then incubated at 28° C. for 18 hours with stirring. For each concentration of antifungal substance, two identical tubes were prepared.
(§23) The inhibition of fungal growth corresponding to the different concentrations was evaluated for each molecule by spectrophotometry at 620 nm and expressed in percent with respect to a reference solution without antifungal substance.

[8] = tested on: Saccharomyces cerevisiae; assay: as above; conditions: Sabouraud broth, 28° C., 18 hours, read-out: IC 50 (growth-inhibiting concentration of 50%)
Experimental: as §19, §20, §21, §22, §23

[9] = tested on: X 63 (mice lymphoma B); assay: Toxicity on nucleated cells, X 63 mice lymphoma B; conditions: 1 hour 30, trypan blue, 90 min, read-out: LD 50 (concentration leading to a mortality of 50%)
[10] = tested on: red corpuscles; assay: Toxicity on red corpuscles (lysis), human; conditions: 37° C., 1 hour 30, 90 min, 90 min, read-out: LD 50 (dose which leads to lysis in 50% of the erythrocytes)
Experimental: as §1, §2, §3, §4, §5, §6, §7, §8

[11] = tested on: Cryptoccocus neoformans; assay: Growth inhibition in liquid medium (Sabouraud broth); conditions: Sabouraud broth, 28° C., 18 hours; read-out: IC 50 (growth-inhibiting concentration of 50%)
Experimental: as §19, §20, §21, §22, §23

[12] = Toxicity on nucleated cells, mice thymocytes; conditions: mouse, thymocytes, 1 hour 30, trypan blue, read-out: LD 50 (concentration leading to a mortality of 50%)
[13] = tested on: Pytirosporum orbiculare; assay: Growth inhibition in liquid medium (Sabouraud broth); conditions: Sabouraud broth, 28° C., 18 hours; read-out: IC 50 (growth-inhibiting concentration of 50%)
Experimental: as §19, §20, §21, §22, §23

[14] = Toxicity on nucleated cells, human thymocytes; conditions: 1 hour 30, trypan blue, read-out: LD 50 (concentration leading to a mortality of 50%)
Experimental: as §9, §10, §11, §12, §13, §14

[15] = Toxicity on nucleated cells, human bone marrow; conditions: 1 hour 30, trypan blue, read-out: LD 50 (concentration leading to a mortality of 50%)
Experimental: as §9, §10, §11, §12, §13, §14

[16] = Toxicity on nucleated cells, mice T lymph gland cells; conditions: mouse, 1 hour 30, trypan blue, read-out: LD 50 (concentration leading to a mortality of 50%)
Experimental: as §9, §10, §11, §12, §13, §14

[17] = Toxicity on nucleated cells, mice B lymph gland cells; conditions: mouse, 1 hour 30, trypan blue, read-out: LD 50 (concentration leading to a mortality of 50%)
Experimental: as §9, §10, §11, §12, §13, §14

[18] = human PBL, 1 hour 30, trypan blue, read-out: LD 50 (concentration leading to a mortality of 50%)

SMILES | CC50 [2, 18] | CC50 [3] | CC50 [4] | concentration giving a growth inhibition of 1 cm around a disc in solid medium [5] | concentration giving a growth inhibition of 1 cm around a disc in solid medium [6] | IC50 [7] | IC50 [8] | CC50 [9] | HC50 [10] | HC50 ([1]; 90 min) | IC50 [11] | other results
C[C@@H]1[C@H](O)[C@@H](C)/C=C/C=C/C=C/C=C/C=C/C=C/C=C/[C@H](O[C@@H]2O[C@H](C)[C@@H](O)[C@H](NCC3(O)O[C@H](C(N)=O)[C@@H](O)[C@@H]3O)[C@@H]2O)C[C@@H]2O[C@](O)(C[C@@H](O)C[C@@H](O)[C@H](O)CC[C@@H](O)C[C@@H](O)CC(=O)O[C@H]1C)C[C@H](O)[C@H]2C(=O)O (stereo partly drawn) [AmB 12 G, 1-amino-1-deoxy-D-arabinoglucuronamidyl-AmB] | 46 µM | 5 µM | > 300 µM | 1 × 10^-4 molarity | 9 × 10^-5 molarity | 0.1 µM | 0.62 µM | 500 µM | 30 µM | – | – | HC50 [1]: 20 µM
C[C@@H]1[C@H](O)[C@@H](C)/C=C/C=C/C=C/C=C/C=C/C=C/C=C/[C@H](O[C@@H]2O[C@H](C)[C@@H](O)[C@H](NCC(=O)[C@@H](O)[C@@H]3OC(c4ccccc4)OC[C@H]3O)[C@@H]2O)C[C@@H]2O[C@](O)(C[C@@H](O)C[C@@H](O)[C@H](O)CC[C@@H](O)C[C@@H](O)CC(=O)O[C@H]1C)C[C@H](O)[C@H]2C(=O)O (stereo partly drawn) [AmB 20 G, 1-deoxy-1-amino-4,6O-benzylidene-D-fructosyl-AmB] | 30 µM | 4 µM | 500 µM | 1.3 × 10^-4 molarity | 6 × 10^-4 molarity | 0.1 µM | 1 µM | 150 µM | 80 µM | 4 µM | 0.06 µM | –
C[C@@H]1[C@H](O)[C@@H](C)/C=C/C=C/C=C/C=C/C=C/C=C/C=C/[C@H](O[C@@H]2O[C@H](C)[C@@H](O)[C@H](NCC3(O)O[C@H](C(N)=O)[C@@H](O)[C@@H]3O)[C@@H]2O)C[C@@H]2O[C@](O)(C[C@@H](O)C[C@@H](O)[C@H](O)CC[C@@H](O)C[C@@H](O)CC(=O)O[C@H]1C)C[C@H](O)[C@H]2C(=O)O (stereo partly drawn) [Acetic acid NMG salt] | – | – | – | – | – | – | – | – | – | – | – | CC50 ([2]; human PBLs, AmB 12 derivative, comparison of different catalysts (Table 4), read-out: LD 50 (the source's name)): 200 µM
CC1OC[C@@H](O)[C@H]([C@H](O)C(=O)CN[C@@H]2[C@H](O)[C@H](O[C@H]3/C=C/C=C/C=C/C=C/C=C/C=C/C=C/[C@H](C)[C@@H](O)[C@@H](C)[C@H](C)OC(=O)C[C@H](O)C[C@H](O)CC[C@@H](O)[C@H](O)C[C@H](O)C[C@]4(O)C[C@H](O)[C@@H](C(=O)O)[C@H](C3)O4)O[C@H](C)[C@H]2O)O1 (stereo partly drawn) [AmB 22 G, 1-deoxy-1-amino-4,6-O-ethylidene-D-fructosyl-AmB] | 30 µM | 5 µM | 700 µM | 1 × 10^-4 molarity | 9 × 10^-5 molarity | 0.09 µM | 1.2 µM | 400 µM | 50 µM | 10 µM | 0.12 µM | –
C[C@@H]1[C@H](O)[C@@H](C)/C=C/C=C/C=C/C=C/C=C/C=C/C=C/[C@H](O[C@@H]2O[C@H](C)[C@@H](O)[C@H](NCC3(O)O[C@H](C(=O)O)[C@@H](O)[C@@H]3O)[C@@H]2O)C[C@@H]2O[C@](O)(C[C@@H](O)C[C@@H](O)[C@H](O)CC[C@@H](O)C[C@@H](O)CC(=O)O[C@H]1C)C[C@H](O)[C@H]2C(=O)O (stereo partly drawn) [AmB 17 G, 1-amino-1-deoxy-D-arabinoglucuronyl-AmB] | 10 µM | 5 µM | 300 µM | 3.5 × 10^-5 molarity | 9 × 10^-5 molarity | – | 0.86 µM | 150 µM | 50 µM | 10 µM | 0.06 µM | –
CC(=O)NC[C@H]1OC(O)(CN[C@@H]2[C@H](O)[C@H](O[C@H]3/C=C/C=C/C=C/C=C/C=C/C=C/C=C/[C@H](C)[C@@H](O)[C@@H](C)[C@H](C)OC(=O)C[C@H](O)C[C@H](O)CC[C@@H](O)[C@H](O)C[C@H](O)C[C@]4(O)C[C@H](O)[C@@H](C(=O)O)[C@H](C3)O4)O[C@H](C)[C@H]2O)[C@@H](O)[C@@H]1O (stereo partly drawn) [AmB 23 G, 6-deoxy-6-N-acetyl-1-deoxy-1-amino-fructosyl-AmB] | 8 µM | 2.5 µM | 300 µM | 9 × 10^-5 molarity | 5 × 10^-4 molarity | – | 1 µM | 500 µM | 1 µM | 4 µM | 0.17 µM | –
C[C@@H]1[C@H](O)[C@@H](C)/C=C/C=C/C=C/C=C/C=C/C=C/C=C/[C@H](O[C@@H]2O[C@H](C)[C@@H](O)[C@H](NCC3(O)O[C@H](C(=O)O)[C@@H](O)[C@@H]3O)[C@@H]2O)C[C@@H]2O[C@](O)(C[C@@H](O)C[C@@H](O)[C@H](O)CC[C@@H](O)C[C@@H](O)CC(=O)O[C@H]1C)C[C@H](O)[C@H]2C(=O)O (stereo partly drawn) [AmB 17 F, 1-amino-1-deoxy-D-arabinoglucuronyl-AmB] | > 1000 µM | – | > 1000 µM | 2 × 10^-4 molarity | 2 × 10^-4 molarity | – | – | > 1000 µM | 200 µM | 30 µM | 0.15 µM | CC50 at 1.5 h [12]: 8 µM; IC50 ([7]; Candida albicans, 18 h): 0.13 µM; IC50 ([8]; Saccharomyces cerevisiae, 18 h): 1.4 µM; IC50 [13]: 0.09 µM; CC50 at 1.5 h [14]: > 300 µM; CC50 at 1.5 h [15]: > 1000 µM; CC50 at 1.5 h [16]: 20 µM; CC50 at 1.5 h [17]: 150 µM
